Data on 6 compounds can be found in US20200255478A1, “NOVEL COMPOUNDS ACTIVATING THE NRF2 PATHWAY” (Almirall, S.A., priority 2017, published 2020).

The IC50 is the point on the concentration scale where inhibition reaches its midpoint.

Molecules are shown by their SMILES. Starred links: 1 amine or outer side, 2 acyl side, 3 side chain; linkers in the order of their positions; H or OH if unused. Positions of bridges follow the written chain, without caps; N, C: chain ends. Residues, ends and D or L forms follow the SMILES beside them. oXylylene = c1ccc(C[*:2])c(C[*:1])c1

In the first test the target is Keap1-Maltose Binding Protein (MBP tag) (Homo sapiens, UniProt Q14145). Description: Nrf2-Keap1 HTRF (TR-FRET) binding assay: displacement of biotinylated ETGE peptide from Keap1-MBP.
Keap1-Maltose Binding Protein (MBP tag), sequence (Q14145 whole entry): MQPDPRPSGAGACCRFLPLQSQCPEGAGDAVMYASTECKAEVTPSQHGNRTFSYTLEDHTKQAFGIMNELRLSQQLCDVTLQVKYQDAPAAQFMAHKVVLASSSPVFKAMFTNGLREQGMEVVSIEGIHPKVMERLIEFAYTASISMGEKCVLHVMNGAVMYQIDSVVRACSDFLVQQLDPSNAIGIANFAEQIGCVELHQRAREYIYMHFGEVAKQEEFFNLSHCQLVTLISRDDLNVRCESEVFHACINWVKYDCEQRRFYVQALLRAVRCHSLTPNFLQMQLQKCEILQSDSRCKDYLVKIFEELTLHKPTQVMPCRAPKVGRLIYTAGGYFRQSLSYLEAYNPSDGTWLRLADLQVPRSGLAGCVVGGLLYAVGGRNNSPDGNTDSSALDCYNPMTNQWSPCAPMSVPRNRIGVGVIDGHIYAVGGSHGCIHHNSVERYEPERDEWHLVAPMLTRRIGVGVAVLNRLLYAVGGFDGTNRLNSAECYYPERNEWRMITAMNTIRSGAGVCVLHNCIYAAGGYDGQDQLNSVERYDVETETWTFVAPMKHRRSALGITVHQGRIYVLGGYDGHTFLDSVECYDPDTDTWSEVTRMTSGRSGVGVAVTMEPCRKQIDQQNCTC
Conditions: not given
In general terms: In TR-FRET formats the signal depends on donor and acceptor labels being close together.
As for `CCCCCCCCCCCCCC(=O)N[C@H]1C[C@H]2C(=O)N[C@@H](CCC(N)=O)C(=O)N[C@H]3CSCc4ccccc4CSC[C@H](NC(=O)[C@H](CCC(=O)O)NC(=O)CNC(=O)[C@H]([C@@H](C)O)NC(=O)[C@H](CCC(=O)O)NC(=O)[C@@H]4CCCN4C(=O)[C@H](CC(=O)O)NC3=O)C(=O)N[C@@H](CC(C)C)C(=O)N3CCC[C@@H]3C(=O)N2C1` [Example 80, {[&^1Pro((4S)-NH-Miristoyl)-Gln-Cys(&^2)-Asp-Pro-Glu-Thr-Gly-Glu-Cys(&^3)-Leu-D-Pro&^1][&^2(1,2-phenylenediyl)dimethylene&^3]}], the IC50 is under 1 nM.

On to `CCCCCCCC/C=C/CCCCCCCC(=O)N[C@H]1C[C@H]2C(=O)N[C@@H](CCC(N)=O)C(=O)N[C@H]3CSCc4ccccc4CSC[C@H](NC(=O)[C@H](CCC(=O)O)NC(=O)CNC(=O)[C@H]([C@@H](C)O)NC(=O)[C@H](CCC(=O)O)NC(=O)[C@@H]4CCCN4C(=O)[C@H](CC(=O)O)NC3=O)C(=O)N[C@@H](CC(C)C)C(=O)N3CCC[C@@H]3C(=O)N2C1` [Example 87, {[&^1Pro((4S)-NH-elaidyl)-Gln-Cys(&^2)-Asp-Pro-Glu-Thr-Gly-Glu-Cys(&^3)-Leu-D-Pro&^1][&^2(1,2-phenylenediyl)dimethylene&^3]}], for which the IC50 was 1 to 100 nM.

In turn, `CCCCCCCCCCCCCCCCCC(=O)N[C@H]1C[C@H]2C(=O)N[C@@H](CCC(N)=O)C(=O)N[C@H]3CSCc4cccc(c4)CSC[C@H](NC(=O)[C@H](CCC(=O)O)NC(=O)CNC(=O)[C@H]([C@@H](C)O)NC(=O)[C@H](CCC(=O)O)NC(=O)[C@@H]4CCCN4C(=O)[C@H](CC(=O)O)NC3=O)C(=O)N[C@@H](CC(C)C)C(=O)N3CCC[C@@H]3C(=O)N2C1` [Example 74, {[&^1Pro((4S)-NH-Stearyl)-Gln-Cys(&^2)-Asp-Pro-Glu-Thr-Gly-Glu-Cys(&^3)-Leu-D-Pro&^1][&^2(1,3-phenylenediyl)dimethylene&^3]}] yielded an IC50 of under 1 nM.

`CCCCCCCCCCCCCCCCCC(=O)N[C@H]1C[C@H]2C(=O)N[C@@H](CCC(N)=O)C(=O)N[C@H]3CSCc4ccccc4CSC[C@H](NC(=O)[C@H](CCC(=O)O)NC(=O)CNC(=O)[C@H]([C@@H](C)O)NC(=O)[C@H](CCC(=O)O)NC(=O)[C@@H]4C[C@H](N)CN4C(=O)[C@H](CC(=O)O)NC3=O)C(=O)N[C@@H](CC(C)C)C(=O)N3CCC[C@@H]3C(=O)N2C1` [Example 73, {[&^1Pro((4S)-NH-Stearyl)-Gln-Cys(&^2)-Asp-Pro((4S)-NH2)-Glu-Thr-Gly-Glu-Cys(&^3)-Leu-D-Pro&^1][&^2(1,2-phenylenediyl)dimethylene&^3]}] registered an IC50 of 1 to 100 nM.

Still in this test, the particulars now being: HTRF (TR-FRET); displacement of ETGE-biotin from Keap1-MBP; values banded into grades; read-out: Binding (IC50) ETGE-Keap1.
On to `CC(C)C[C@H](NC(=O)[C@@H]1CSCc2ccccc2CSC[C@H](NC(=O)[C@H](CCC(N)=O)NC(=O)[C@@H](N)CC(C)C)C(=O)N[C@@H](CC(=O)O)C(=O)N[C@@H](C)C(=O)N[C@@H](CCC(=O)O)C(=O)N[C@@H]([C@@H](C)O)C(=O)NCC(=O)N[C@@H](CCC(=O)O)C(=O)N1)C(=O)N1CCC[C@H]1C(=O)O` [Example 19, {[H-Leu-Gln-Cys(&^1)-Asp-Ala-Glu-Thr-Gly-Glu-Cys(&^2)-Leu-Pro-OH][&^1(1,2-phenylenediyl)dimethylene&^2]}] (H-LQCDAETGECLP-OH; linker 3-10 via oXylylene), for which the IC50 fell in the range of 1 to 100 nM.

In the case of `CC(C)C[C@H](NC(=O)[C@@H]1CSc2[nH]c3ccccc3c2C[C@H](NC(=O)[C@H](CCC(N)=O)NC(=O)[C@@H](N)CC(C)C)C(=O)N[C@@H](CC(=O)O)C(=O)N[C@@H](CCC(=O)O)C(=O)N[C@@H](CCC(=O)O)C(=O)N[C@@H]([C@@H](C)O)C(=O)NCC(=O)N[C@@H](CCC(=O)O)C(=O)N1)C(=O)N1CCC[C@H]1C(=O)NCCC(=O)N[C@@H](CCCNC(=N)N)C(=O)N[C@@H](CCCCN)C(=O)N[C@@H](CCCCN)C(=O)N[C@@H](CCCNC(=N)N)C(=O)N[C@@H](CCCNC(=N)N)C(=O)N[C@@H](CCC(N)=O)C(=O)N[C@@H](CCCNC(=N)N)C(=O)N[C@@H](CCCNC(=N)N)C(=O)N[C@@H](CCCNC(=N)N)C(N)=O` [Example 8], the IC50 was 1 to 100 nM.
